From patent US20100130549A1, “PSYCHOTROPIC COMPOUNDS, COMPOSITIONS AND METHODS OF USE” (priority 2007, published 2010)
pIC50, pKi: −log10 of the molar value.

What was measured:
[1] = biological target: Trasnporter, Dopamine (DAT) (Homo sapiens, UniProt Q01959); assay: Radioligand binding assay, Dopamine transporter
Text: (§1) With regard to the data provided in Table 1, the biochemical assay results are presented as the percent inhibition of specific binding or activity throughout the report. For primary assays, only the lowest concentration with a significant response judged by the assays’ criteria, is shown in this summary. […] Unless otherwise requested, primary screening in duplicate with quantitative data (e.g., IC50±SEM, Ki±SEM and nH) are shown.

BALB/c mice = assay: Acute toxicity, ip administration; assay type: in vivo; conditions: ip up to 30 mg/kg
Description: […]. […] The body weight of the mice was determined up to 12 days after administration of the compounds.

Dopamine D1 = Dopamine D1 (Homo sapiens, UniProt P21728); assay: Radioligand binding assay, Dopamine D1
Text: (§2) . Table 1 provides data produced via a receptor binding assay and IC50 and Ki determination. […] In addition, the compound of formula (Ia) has a potent DAT inhibition, which is indicative of dopaminergic uptake inhibition and increased DA activity. In addition to the effect on SERT and DAT, the compound of formula (Ia) inhibited the transporter of Norepinephrine (NET), and several neurotransmitter's receptors like alpha2A and alpha2C receptors, alpha 1A and alphal C, 5HT2A and 5HT2C, signal histamine2 and dopamine D1. This specific profile is in line with the data on antidepressant, anxiolytic and moderate neuro-stimulation activity observed in the animal model studies.
as §1

Sigma σ1 = Sigma σ1 (Homo sapiens, UniProt Q99720); assay: Radioligand binding assay, Sigma σ1
Text: as §2, §1

Chain of Trasnporter, Dopamine (DAT) (Q01959 whole entry): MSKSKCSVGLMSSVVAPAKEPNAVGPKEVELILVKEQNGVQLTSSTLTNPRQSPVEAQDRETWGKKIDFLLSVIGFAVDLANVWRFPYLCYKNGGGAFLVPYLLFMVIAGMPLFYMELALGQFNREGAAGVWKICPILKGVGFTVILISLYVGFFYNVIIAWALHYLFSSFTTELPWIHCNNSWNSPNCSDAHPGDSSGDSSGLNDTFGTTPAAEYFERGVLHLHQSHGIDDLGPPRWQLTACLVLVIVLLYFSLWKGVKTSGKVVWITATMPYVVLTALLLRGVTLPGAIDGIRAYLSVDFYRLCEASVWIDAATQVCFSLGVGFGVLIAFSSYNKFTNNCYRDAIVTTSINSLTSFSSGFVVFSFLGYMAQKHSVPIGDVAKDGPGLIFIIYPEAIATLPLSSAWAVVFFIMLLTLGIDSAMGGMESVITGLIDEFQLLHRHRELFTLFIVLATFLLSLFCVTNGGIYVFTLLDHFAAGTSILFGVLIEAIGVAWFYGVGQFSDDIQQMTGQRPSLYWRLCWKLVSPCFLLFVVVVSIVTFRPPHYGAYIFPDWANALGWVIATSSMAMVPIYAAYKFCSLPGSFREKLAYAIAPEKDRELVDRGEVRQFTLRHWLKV
Chain of Dopamine D1 (P21728 whole entry): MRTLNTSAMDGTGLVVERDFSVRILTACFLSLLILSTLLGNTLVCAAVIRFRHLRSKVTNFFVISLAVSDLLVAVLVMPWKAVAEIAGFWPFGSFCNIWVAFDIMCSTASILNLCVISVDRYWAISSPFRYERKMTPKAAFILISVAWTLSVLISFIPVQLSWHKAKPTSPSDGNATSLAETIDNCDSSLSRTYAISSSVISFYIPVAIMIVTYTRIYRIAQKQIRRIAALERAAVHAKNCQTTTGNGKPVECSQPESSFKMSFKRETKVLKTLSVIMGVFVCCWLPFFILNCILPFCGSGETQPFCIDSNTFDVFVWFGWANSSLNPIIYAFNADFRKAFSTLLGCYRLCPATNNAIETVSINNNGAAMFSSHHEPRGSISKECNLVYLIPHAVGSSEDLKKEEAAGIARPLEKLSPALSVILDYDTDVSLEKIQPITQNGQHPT
Chain of Sigma σ1 (Q99720 whole entry): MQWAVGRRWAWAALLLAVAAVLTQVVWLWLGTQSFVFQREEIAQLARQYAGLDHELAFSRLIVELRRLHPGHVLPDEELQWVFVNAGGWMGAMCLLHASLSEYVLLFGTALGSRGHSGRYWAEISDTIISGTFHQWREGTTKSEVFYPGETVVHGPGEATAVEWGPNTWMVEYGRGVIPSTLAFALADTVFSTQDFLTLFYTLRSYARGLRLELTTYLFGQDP

## CN[C@H]1CC[C@@H](c2ccc(Cl)c(Cl)c2)c2ccc(C#CCCCO)cc21 [compound Ia, (1S-cis)-4-(3,4-dichlorophenyl)-7-(5-hydroxy-1-pentyn-1-yl)-1,2,3,4-tetrahydro-N-methyl-1-naphthalenamine hydroiodide]
[1]
  pIC50: > 6.52
[1]; 0.03 μM
  inhibition at 0.03 µM: 51%
[1]; read-out: DAT final Ki
  pKi: 7.54
BALB/c mice
  survival: all of the corresponding animals survived
Dopamine D1
  pIC50: 5.57
  nH: 1.25
Dopamine D1; 10 μM
  inhibition at 10 µM: 84%
Dopamine D1; read-out: K1
  pKi: 5.87
Sigma σ1
  pIC50: 6.08
  nH: 0.627
Sigma σ1; 3 μM
  inhibition at 3 µM: 69%
Sigma σ1; read-out: K1
  pKi: 6.45
